In patent US5545547A, “Enzymes as agricultural chemical adjuvants” (priority 1992, dated 1996):

Assays:
Format in all cases: in vivo
[1] = tested on: various plants; test: Greenhouse multispecies herbicide screen, statements on all tested plants; details: High HYVAR; all other tested conditions; after two weeks
Description: (§1) Several plant species including weeds and crops are used in these experiments.
A number of herbicides from various chemical classes were compared in a multispecies screen for percent chlorosis, necrosis and vigor reduction both with and without application of the enzyme from Pseudomonas mendocina ATCC 53552 described earlier. The herbicides were applied to various plants at the manufacturers recommended doses and at 10% and 40% of the recommended dose. Two different enzyme concentrations were used: 0.5 mg/ml (HE) and 0.05 mg/ml (LE) and applied at the rate of 40 gallons/acre. All spraying solutions were at pH 10 and contained 100 mm sodium phosphate each. […] All the experiments were carried out in a greenhouse.

[2] = tested on: Barnyard Grass; test: Greenhouse multispecies herbicide screen with/without P. mendocina enzyme
Method: as §1
A number of herbicides from various chemical classes were compared in a multispecies screen for percent chlorosis, necrosis and vigor reduction both with and without application of the enzyme from Pseudomonas mendocina ATCC 53552 described earlier. […] Two different enzyme concentrations were used: 0.5 mg/ml (HE) and 0.05 mg/ml (LE) and applied at the rate of 40 gallons/acre. All spraying solutions were at pH 10 and contained 100 mm sodium phosphate each. […] All the experiments were carried out in a greenhouse.
(§2) Chlorosis--figures represent percent of plants showing chlorosis.
(§3) Necrosis--figures represent percent of plants showing necrosis.
(§4) Vigor--figures represent percent of plants showing decreased vigor.
(§5) Phytotoxicity--figures represent the average percent of chlorosis, necrosis, and vigor for a given sample.

[3] = tested on: Soybeans; test: as above; details: one week after treatment
Description: as §1
(§6) A number of herbicides from various chemical classes were compared in a multispecies screen for percent chlorosis, necrosis and vigor reduction both with and without application of the enzyme from Pseudomonas mendocina ATCC 53552 described earlier. The herbicides were applied to various plants at the manufacturers recommended doses and at 10% and 40% of the recommended dose. Two different enzyme concentrations were used: 0.5 mg/ml (HE) and 0.05 mg/ml (LE) and applied at the rate of 40 gallons/acre. All spraying solutions were at pH 10 and contained 100 mm sodium phosphate each. Ratings were done at 6 and 12 days after the treatment. All the experiments were carried out in a greenhouse.
as §2, §3, §4, §5
(§7) The method of Example 1 was used except that the enzyme was applied 2 hours prior to administering the agricultural chemical with the following results. Ratings were done two weeks after treatment

[4] = tested on: Turnip; test: as above; details: one week after treatment
Description: as §1, §6, §2, §3, §4, §5, §7

[5] = HYVAR 10% dose, High Enzyme, one week after treatment
[6] = HYVAR 10% dose, Low Enzyme, one week after treatment
[7] = HYVAR 10% dose, No Enzyme, one week after treatment
[8] = HYVAR 18%, High Enzyme, two weeks after treatment
[9] = HYVAR 18%, Low Enzyme, two weeks after treatment
[10] = HYVAR 18%, No Enzyme, two weeks after treatment
[11] = HYVAR 40% dose, High Enzyme, one week after treatment
[12] = HYVAR 40% dose, Low Enzyme, one week after treatment
[13] = HYVAR 40% dose, No Enzyme, one week after treatment
[14] = HYVAR 100% dose, No Enzyme, one week after treatment

CCC(C)n1c(=O)[nH]c(C)c(Br)c1=O (stereo not shown) [HYVAR, 5-bromo-6-methyl-3-(1-methylpropyl)-2,4-(1H,3H)-pyrimidinedione]
kill [1]: 100%
CHL (chlorosis) [2, 5]: 25%
NEC (necrosis) [2, 5]: 10%
PHY (phytotoxicity) [2, 5]: 28%
VIG (vigor) [2, 5]: 50%
CHL (chlorosis) [2, 6]: 50%
NEC (necrosis) [2, 6]: 18%
PHY (phytotoxicity) [2, 6]: 39%
VIG (vigor) [2, 6]: 50%
CHL (chlorosis) [2, 7]: 30%
NEC (necrosis) [2, 7]: 25%
PHY (phytotoxicity) [2, 7]: 28%
VIG (vigor) [2, 7]: 30%
CHL (chlorosis) [2, 8]: 95%
NEC (necrosis) [2, 8]: 88%
PHY (phytotoxicity) [2, 8]: 90%
VIG (vigor) [2, 8]: 88%
CHL (chlorosis) [2, 9]: 88%
NEC (necrosis) [2, 9]: 85%
PHY (phytotoxicity) [2, 9]: 86%
VIG (vigor) [2, 9]: 85%
CHL (chlorosis) [2, 10]: 85%
NEC (necrosis) [2, 10]: 78%
PHY (phytotoxicity) [2, 10]: 80%
VIG (vigor) [2, 10]: 78%
CHL (chlorosis) [2, 11]: 55%
NEC (necrosis) [2, 11]: 50%
PHY (phytotoxicity) [2, 11]: 45%
VIG (vigor) [2, 11]: 30%
CHL (chlorosis) [2, 12]: 55%
NEC (necrosis) [2, 12]: 60%
PHY (phytotoxicity) [2, 12]: 59%
VIG (vigor) [2, 12]: 63%
CHL (chlorosis) [2, 13]: 65%
NEC (necrosis) [2, 13]: 30%
PHY (phytotoxicity) [2, 13]: 50%
VIG (vigor) [2, 13]: 55%
CHL (chlorosis) [2, 14]: 50%
NEC (necrosis) [2, 14]: 60%
PHY (phytotoxicity) [2, 14]: 62%
VIG (vigor) [2, 14]: 75%
CHL (chlorosis) ([3]; HYVAR 10% dose, High Enzyme): 25%
NEC (necrosis) ([3]; HYVAR 10% dose, High Enzyme): 50%
PHY (phytotoxicity) ([3]; HYVAR 10% dose, High Enzyme): 42%
VIG (vigor) ([3]; HYVAR 10% dose, High Enzyme): 50%
CHL (chlorosis) ([3]; HYVAR 10% dose, Low Enzyme): 90%
NEC (necrosis) ([3]; HYVAR 10% dose, Low Enzyme): 83%
PHY (phytotoxicity) ([3]; HYVAR 10% dose, Low Enzyme): 88%
VIG (vigor) ([3]; HYVAR 10% dose, Low Enzyme): 90%
CHL (chlorosis) ([3]; HYVAR 10% dose, No Enzyme): 55%
NEC (necrosis) ([3]; HYVAR 10% dose, No Enzyme): 75%
PHY (phytotoxicity) ([3]; HYVAR 10% dose, No Enzyme): 68%
VIG (vigor) ([3]; HYVAR 10% dose, No Enzyme): 75%
CHL (chlorosis) ([3]; HYVAR 40% dose, High Enzyme): 45%
NEC (necrosis) ([3]; HYVAR 40% dose, High Enzyme): 50%
PHY (phytotoxicity) ([3]; HYVAR 40% dose, High Enzyme): 59%
VIG (vigor) ([3]; HYVAR 40% dose, High Enzyme): 83%
CHL (chlorosis) ([3]; HYVAR 40% dose, Low Enzyme): 55%
NEC (necrosis) ([3]; HYVAR 40% dose, Low Enzyme): 88%
PHY (phytotoxicity) ([3]; HYVAR 40% dose, Low Enzyme): 72%
VIG (vigor) ([3]; HYVAR 40% dose, Low Enzyme): 73%
CHL (chlorosis) ([3]; HYVAR 40% dose, No Enzyme): 45%
NEC (necrosis) ([3]; HYVAR 40% dose, No Enzyme): 60%
PHY (phytotoxicity) ([3]; HYVAR 40% dose, No Enzyme): 39%
VIG (vigor) ([3]; HYVAR 40% dose, No Enzyme): 73%
CHL (chlorosis) ([3]; HYVAR 100% dose, No Enzyme): 100%
NEC (necrosis) ([3]; HYVAR 100% dose, No Enzyme): 100%
PHY (phytotoxicity) ([3]; HYVAR 100% dose, No Enzyme): 100%
VIG (vigor) ([3]; HYVAR 100% dose, No Enzyme): 100%
CK (chlorosis) ([4]; HYVAR 10% dose, High Enzyme): 50%
NEC (necrosis) ([4]; HYVAR 10% dose, High Enzyme): 85%
PHY (phytotoxicity) ([4]; HYVAR 10% dose, High Enzyme): 73%
VIG (vigor) ([4]; HYVAR 10% dose, High Enzyme): 83%
CK (chlorosis) ([4]; HYVAR 10% dose, Low Enzyme): 70%
NEC (necrosis) ([4]; HYVAR 10% dose, Low Enzyme): 90%
PHY (phytotoxicity) ([4]; HYVAR 10% dose, Low Enzyme): 84%
VIG (vigor) ([4]; HYVAR 10% dose, Low Enzyme): 93%
CK (chlorosis) ([4]; HYVAR 10% dose, No Enzyme): 70%
NEC (necrosis) ([4]; HYVAR 10% dose, No Enzyme): 93%
PHY (phytotoxicity) ([4]; HYVAR 10% dose, No Enzyme): 84%
VIG (vigor) ([4]; HYVAR 10% dose, No Enzyme): 90%
CK (chlorosis) ([4]; HYVAR 40% dose, High Enzyme): 97%
NEC (necrosis) ([4]; HYVAR 40% dose, High Enzyme): 97%
PHY (phytotoxicity) ([4]; HYVAR 40% dose, High Enzyme): 97%
VIG (vigor) ([4]; HYVAR 40% dose, High Enzyme): 98%
CK (chlorosis) ([4]; HYVAR 40% dose, Low Enzyme): 93%
NEC (necrosis) ([4]; HYVAR 40% dose, Low Enzyme): 95%
PHY (phytotoxicity) ([4]; HYVAR 40% dose, Low Enzyme): 94%
VIG (vigor) ([4]; HYVAR 40% dose, Low Enzyme): 95%
CK (chlorosis) ([4]; HYVAR 40% dose, No Enzyme): 65%
NEC (necrosis) ([4]; HYVAR 40% dose, No Enzyme): 73%
PHY (phytotoxicity) ([4]; HYVAR 40% dose, No Enzyme): 74%
VIG (vigor) ([4]; HYVAR 40% dose, No Enzyme): 85%
CK (chlorosis) ([4]; HYVAR 100% dose, No Enzyme): 100%
NEC (necrosis) ([4]; HYVAR 100% dose, No Enzyme): 95%
PHY (phytotoxicity) ([4]; HYVAR 100% dose, No Enzyme): 95%
VIG (vigor) ([4]; HYVAR 100% dose, No Enzyme): 90%
